Reference: patent US5569665A, “Peptidyl derivatives and their use as metalloproteinases inhibitors” (Celltech Limited, priority 1992, dated 1996)
Counter-ions that a name gives are not always drawn.

How the values were obtained:
Type in all cases: biochemical
Collagenase = assay: Fluorimetric enzyme inhibition assay with peptide substrate (Example A), collagenase; settings: Ki (app) assumed to approximate true Ki; substrate approx. 20 μm, pH 7.5, overnight
Protocol: (§1) All enzyme assays to determine Ki values were performed using the peptide substrate Dnp-Pro-Leu-Gly-Trp-Ala-D-Arg-NH2. (M. Sharon Stock and Rober D. Gray, JBC 264, 4277-81, 1989). The enzymes cleave at the Gly-Leu bond which can be followed fluorimetrically by measuring the increase in Trp fluorescence emission associated with the removal of the quenching dinitrophenol (Dnp) group.
(§2) Essentially, enzyme (e.g. gelatinase, stromelysin, coilagenase) at 0.08-2 nM; a range of inhibitor concentrations (0.1-50×Ki) and substrate (approx. 20 μm) are incubated overnight in 0.1M Tris/HCl buffer, pH 7.5, containing 0.1M NaCl, 10 mM CaCl2 and 0.05%. Brij 35 at either room temperature or 37° C. depending on the enzyme. The reaction is stopped by adjusting the pH to 4 using 0.1M sodium acetate buffer and the fluorescence read at an excitation wavelength of 280nm and emission wavelength of 346nm.
(§3) Ki values can be established using the equation for tight-binding inhibition: [formula] where Vo is the initial rate of reaction in the absence of inhibitor, Vi is the initial rate in the presence of inhibitor, [E] is the total enzyme concentration and [I] the total inhibitor concentration in the reaction mixture.
(§4) For stromelysin and collagenase, Ki (app) was assumed to approximate to the true Ki as [S]<<Km for the substrate hydrolysis. For gelatinase the Ki was determined by performing the analyses at several substrate concentrations. A plot of Ki (app) vs. [S] then gave the true Ki as the value of the y-axis intercept.

Stromelysin-1 = Stromelysin-1 (Homo sapiens, UniProt P08254); assay: Fluorimetric enzyme inhibition assay with peptide substrate (Example A), stromelysin-1; settings: Ki (app) assumed to approximate true Ki; substrate approx. 20 μm, pH 7.5, overnight
Protocol: as §1, §2, §3, §4

Gelatinase -72 KD = molecular target: T1, Gelatinase -72 KD (Homo sapiens, UniProt P08253); assay: Fluorimetric enzyme inhibition assay with peptide substrate (Example A), gelatinase; settings: true Ki from plot of Ki (app) vs. [S], y-axis intercept; pH 7.5, overnight
T1 sequence (P08253 110-660): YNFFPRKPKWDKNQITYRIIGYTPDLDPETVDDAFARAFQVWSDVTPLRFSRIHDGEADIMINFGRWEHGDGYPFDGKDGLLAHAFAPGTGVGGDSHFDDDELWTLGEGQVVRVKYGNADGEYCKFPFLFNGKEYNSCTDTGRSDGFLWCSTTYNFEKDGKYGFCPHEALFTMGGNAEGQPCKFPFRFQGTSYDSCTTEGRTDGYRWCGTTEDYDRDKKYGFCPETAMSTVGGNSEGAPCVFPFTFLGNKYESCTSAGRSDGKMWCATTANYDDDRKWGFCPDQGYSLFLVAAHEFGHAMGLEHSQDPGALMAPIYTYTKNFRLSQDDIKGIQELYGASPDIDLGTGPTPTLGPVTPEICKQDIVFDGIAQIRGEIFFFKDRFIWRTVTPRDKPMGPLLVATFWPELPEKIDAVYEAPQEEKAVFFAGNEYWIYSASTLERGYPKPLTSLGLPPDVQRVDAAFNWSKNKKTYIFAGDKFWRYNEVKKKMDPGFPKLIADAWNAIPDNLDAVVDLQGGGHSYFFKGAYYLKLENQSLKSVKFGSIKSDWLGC
Protocol: as §1, §2, §3, §4

Sequence of Stromelysin-1 (P08254 100-477, species assumed): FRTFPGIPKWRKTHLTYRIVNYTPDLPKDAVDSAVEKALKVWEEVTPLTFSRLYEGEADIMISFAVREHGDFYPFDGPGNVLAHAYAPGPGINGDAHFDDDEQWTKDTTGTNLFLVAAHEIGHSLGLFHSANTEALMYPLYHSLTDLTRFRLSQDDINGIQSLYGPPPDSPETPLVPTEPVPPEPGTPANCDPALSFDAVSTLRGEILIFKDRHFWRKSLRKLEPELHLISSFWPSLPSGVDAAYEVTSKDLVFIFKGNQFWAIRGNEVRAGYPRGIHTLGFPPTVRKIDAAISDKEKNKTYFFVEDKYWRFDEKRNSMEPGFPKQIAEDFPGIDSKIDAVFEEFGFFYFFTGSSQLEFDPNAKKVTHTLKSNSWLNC

O=C(O)C[C@@H](CCOc1ccccc1)C(=O)N[C@@H](CC1CCCCC1)C(=O)NCCc1ccccc1 [Example 2]
Ki (Collagenase): 48800 nM
Ki (Stromelysin-1): 1510 nM
Ki (Gelatinase -72 KD): 22.2 nM

C[n+]1ccc(CCC[C@H](CC(=O)NO)C(=O)N[C@@H](CC2CCCCC2)C(=O)NCCc2ccccc2)cc1 [Example 6, {4-(N-hydroxyamino)-2-(R)-3-(N-methyl-4-pyridinium)propylsuccinyl}-L-β-cyclohexylalanine-N-(2-phenylethyl)amide iodide]
Ki (Collagenase): 22000 nM
Ki (Stromelysin-1): 681 nM
Ki (Gelatinase -72 KD): 8.42 nM

O=C(C[C@@H](CCOc1ccccc1)C(=O)N[C@@H](CC1CCCCC1)C(=O)NCCc1ccccc1)NO [Example 3, 4-(N-Hydroxyamino)-2-(R)-(3-(2-phenoxyethyl)succinyl)-L-β-cyclohexylalanine-N-(2-phenylethyl)amide]
Ki (Collagenase): 478 nM
Ki (Stromelysin-1): 29.7 nM
Ki (Gelatinase -72 KD): 0.273 nM

NS(=O)(=O)c1ccc(CCNC(=O)[C@H](CC2CCCCC2)NC(=O)[C@H](CCCc2ccncc2)CC(=O)NO)cc1 [Example 8, {4-(N-Hydroxyamino)-2-(R)-(3-(4-pyridinium)propyl)succinyl}-L-β-cyclohexylalanine-N-(2-(p-sulphonamidophenyl)ethyl)amide trifluoroacetate]
Ki (Collagenase): 215 nM
Ki (Stromelysin-1): 11.8 nM
Ki (Gelatinase -72 KD): 0.059 nM

O=C(C[C@@H](CCCc1ccncc1)C(=O)N[C@@H](CC1CCCCC1)C(=O)NCCc1ccccc1)NO [Example 5, {4-(N-hydroxyamino)-2(R)-(3-(4-pyridinium)propyl)succinyl}-L-β-cyclohexylalanine-N-(2-phenylethyl)amide trifluoroacetate]
Ki (Collagenase): 186 nM
Ki (Stromelysin-1): 12.6 nM
Ki (Gelatinase -72 KD): 0.035 nM
